Data on 20 compounds can be found in US20100204203A1, “Chemical Compounds 637: Pyridopyrimidinediones as PDE4 Inhibitors” (priority 2007, published 2010).

recombinant Human Phosphodiesterase B2 (PDE4B2), sequence (Q07343 1-564 isoform Q07343-2): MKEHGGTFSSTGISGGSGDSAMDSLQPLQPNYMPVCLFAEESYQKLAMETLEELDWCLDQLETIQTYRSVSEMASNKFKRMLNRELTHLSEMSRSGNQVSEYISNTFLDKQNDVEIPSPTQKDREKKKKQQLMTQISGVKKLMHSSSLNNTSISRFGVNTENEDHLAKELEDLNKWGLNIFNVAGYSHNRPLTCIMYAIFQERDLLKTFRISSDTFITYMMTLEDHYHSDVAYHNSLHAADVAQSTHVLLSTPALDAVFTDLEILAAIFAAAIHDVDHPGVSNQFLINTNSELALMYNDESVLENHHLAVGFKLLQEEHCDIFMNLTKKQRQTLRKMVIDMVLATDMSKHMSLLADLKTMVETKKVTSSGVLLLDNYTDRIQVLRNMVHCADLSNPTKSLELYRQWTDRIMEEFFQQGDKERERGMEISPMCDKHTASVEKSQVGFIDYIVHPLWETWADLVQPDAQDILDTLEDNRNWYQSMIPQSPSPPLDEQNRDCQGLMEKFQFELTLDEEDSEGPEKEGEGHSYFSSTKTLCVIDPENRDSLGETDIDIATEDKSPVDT

The assay has as its target recombinant Human Phosphodiesterase B2 (PDE4B2) (Homo sapiens, UniProt Q07343). Briefly: Human Phosphodiesterase B2 Radiometric Assay (yttrium silicate SPA beads, [3H]cyclic AMP). Format: biochemical. The settings on record: recombinant human PDE4B2, radiometric SPA assay, 8 nM [3H]cyclic AMP; read-out: PDE4B2 pIC50 (converted). On the procedure: Human Phosphodiesterase B2 Radiometric Assay
The assay uses recombinant Human Phosphodiesterase B2 (PDE4B2) produced in house (PrAZL0163), stored at −20° C. This assay is based on the observation that 5′AMP, the product of the reaction catalysed by PDE4, binds preferentially to yttrium silicate SPA beads (Amersham Biosciences, UK) compared to the substrate, cAMP. Compounds at the appropriate concentration were preincubated at 30 C for 30 min with an assay buffer containing 50 mM HEPES (pH 7.5), 8.3 mM MgCl2, 1.7 mM EGTA, 0.01% (w/v) Brij° 35 and 0.1 mg/mL recombinant PDE4B2. The reaction was started by the addition of [3H]cyclic AMP to give a final concentration of 8 nM, and was stopped 20 minutes after the addition of the substrate by the addition of yttrium silicate SPA beads containing 18 mM Zn SO4. Bound [3H]cyclic AMP was measured using a Topcount NXT (Packard Bioscience, UK). pIC50 values (presented in Table 15) were determined using Xlfit3 curve fitting, using model 205.
Take `CN(Cc1ccc(-c2cccc(-n3c(=O)n([C@H]4CC[C@@H](NC(=O)C5(N(C)C)CC5)CC4)c(=O)c4cc(F)cnc43)c2)cc1)C(C)(C)C` [Example 207, N-{cis-4-[1-(4′-{[tert-butyl(methyl)amino]methyl}biphenyl-3-yl)-6-fluoro-2,4-dioxo-1,4-dihydropyrido[2,3-d]pyrimidin-3(2H)-yl]cyclohexyl}-1-(dimethylamino)cyclopropanecarboxamide]: the IC50 is 316 pM.
For `CN1CCCN(Cc2ccc(-c3cccc(-n4c(=O)n([C@H]5CC[C@@H](NC(=O)c6cnc7ccccc7n6)CC5)c(=O)c5cc(F)cnc54)c3)cc2)CC1` [Example 358, N-{cis-4-[6-fluoro-1-{4′-[(4-methyl-1,4-diazepan-1-yl)methyl]biphenyl-3-yl}-2,4-dioxo-1,4-dihydropyrido[2,3-d]pyrimidin-3(2H)-yl]cyclohexyl} quinoxaline-2-carboxamide], the IC50 was 12.6 pM.
In the case of `C[C@H](CO)N(C)Cc1cc(O)ccc1-c1cccc(-n2c(=O)n([C@H]3CC[C@@H](NCc4cn5cc(F)ccc5n4)CC3)c(=O)c3cc(F)cnc32)c1` [Example 319, 6-fluoro-3-(cis-4-{[(6-fluoroimidazo[1,2-a]pyridin-2-yl)methyl]amino}cyclohexyl)-1-(4′-hydroxy-2′-{[[(1R)-2-hydroxy-1-methylethyl](methyl)amino]methyl}biphenyl-3-yl)pyrido[2,3-d]pyrimidine-2,4(1H,3H)-dione] it was 631 pM; in that of `NCCNC(=O)c1cccc(-n2c(=O)n([C@H]3CC[C@@H](NC(=O)c4cn5ccccc5n4)CC3)c(=O)c3cc(F)cnc32)c1` [Example 5, N-{cis-4-[1-(3-{[(2-aminoethyl)amino]carbonyl}phenyl)-6-fluoro-2,4-dioxo-1,4-dihydropyrido[2,3-d]pyrimidin-3(2H)-yl]cyclohexyl}imidazo[1,2-a]pyridine-2-carboxamide], 39800 pM.
In the case of `O=C(N[C@H]1CC[C@@H](n2c(=O)c3cc(F)cnc3n(-c3cccc(-c4ccc(CN5CCCNCC5)cc4)c3)c2=O)CC1)c1nc2ccccc2[nH]1` [Example 354, N-{cis-4-[1-[4′-(1,4-diazepan-1-ylmethyl)biphenyl-3-yl]-6-fluoro-2,4-dioxo-1,4-dihydropyrido[2,3-d]pyrimidin-3(2H)-yl]cyclohexyl}-1H-benzimidazole-2-carboxamide] it was 39.8 pM.
In the case of `O=C(N[C@H]1CC[C@@H](n2c(=O)c3cc(F)cnc3n(CCc3ccccc3)c2=O)CC1)c1cn2cc(F)ccc2n1` [Example 38, 6-fluoro-N-{cis-4-[6-fluoro-2,4-dioxo-1-(2-phenylethyl)-1,4-dihydropyrido[2,3-d]pyrimidin-3(2H)-yl]cyclohexyl}imidazo[1,2-a]pyridine-2-carboxamide] it was 3160 pM; in that of `O=C(N[C@H]1CC[C@@H](n2c(=O)c3cc(F)cnc3n(-c3cccc(-c4ccc(O)cc4CN4CCOCC4)c3)c2=O)CC1)c1cn2cc(F)ccc2n1` [Example 103, 6-fluoro-N-{cis-4-[6-fluoro-1-[4′-hydroxy-2′-(morpholin-4-ylmethyl)biphenyl-3-yl]-2,4-dioxo-1,4-dihydropyrido[2,3-d]pyrimidin-3(2H)-yl]cyclohexyl}imidazo[1,2-a]pyridine-2-carboxamide], 1.58 pM.
`CN(C)Cc1ccc(-c2cccc(-n3c(=O)n([C@H]4CC[C@@H](N)CC4)c(=O)c4cc(F)cnc43)c2)cc1` [Example 49, 3-(cis-4-aminocyclohexyl)-1-{4′-[(dimethylamino)methyl]biphenyl-3-yl}-6-fluoropyrido[2,3-d]pyrimidine-2,4(1H,3H)-dione]: the IC50 is 12600 pM.
On to `CC(C)N(CCO)Cc1ccc(-c2cccc(-n3c(=O)n([C@H]4CC[C@@H](NC(=O)C5(N(C)C)CC5)CC4)c(=O)c4cc(F)cnc43)c2)cc1` [Example 126, 1-(dimethylamino)-N-{cis-4-[6-fluoro-1-(4′-{[(2-hydroxyethyl)(isopropyl)amino]methyl}biphenyl-3-yl)-2,4-dioxo-1,4-dihydropyrido[2,3-d]pyrimidin-3(2H)-yl]cyclohexyl}cyclopropane-carboxamide], for which the IC50 was 63.1 pM.
In the case of `O=C(N[C@H]1CC[C@@H](n2c(=O)c3cc(F)cnc3n(-c3cccc(-c4ccc(CN5CCOCC5)cc4)c3)c2=O)CC1)c1cn2cc(F)ccc2n1` [Example 28, 6-fluoro-N-{cis-4-[6-fluoro-1-[4′-(morpholin-4-ylmethyl)biphenyl-3-yl]-2,4-dioxo-1,4-dihydropyrido[2,3-d]pyrimidin-3(2H)-yl]cyclohexyl}imidazo[1,2-a]pyridine-2-carboxamide.] it was 12.6 pM; in that of `O=c1c2cc(F)cnc2n(-c2cccc(-c3ccc(O)cc3CN3CC[C@H](O)C3)c2)c(=O)n1[C@H]1CC[C@@H](NCc2cn3cc(F)ccc3n2)CC1` [Example 331, 6-fluoro-3-(cis-4-{[(6-fluoroimidazo[1,2-a]pyridin-2-yl)methyl]amino}cyclohexyl)-1-(4′-hydroxy-2′-{[(3S)-3-hydroxypyrrolidin-1-yl]methyl}biphenyl-3-yl)pyrido[2,3-d]pyrimidine-2,4(1H,3H)-dione], 398 pM; in that of `O=C(N[C@H]1CC[C@@H](n2c(=O)c3cc(F)cnc3n(-c3cccc(-c4ccccc4O)c3)c2=O)CC1)c1cn2cc(F)ccc2n1` [Example 26, 6-fluoro-N-{cis-4-[6-fluoro-1-(2′-hydroxybiphenyl-3-yl)-2,4-dioxo-1,4-dihydropyrido[2,3-d]pyrimidin-3(2H)-yl]cyclohexyl}imidazo[1,2-a]pyridine-2-carboxamide.], 50.1 pM.
In the case of `CCN(CC)CCN(C)Cc1ccc(-c2cccc(-n3c(=O)n([C@H]4CC[C@@H](NC(=O)c5cn6c(n5)CCCC6)CC4)c(=O)c4cc(F)cnc43)c2)cc1` [Example 225, N-{cis-4-[1-(4′-{[[2-(diethylamino)ethyl](methyl)amino]methyl}biphenyl-3-yl)-6-fluoro-2,4-dioxo-1,4-dihydropyrido[2,3-d]pyrimidin-3(2H)-yl]cyclohexyl}-5,6,7,8-tetrahydroimidazo[1,2-a]pyridine-2-carboxamide] it was 15.8 pM.
In the case of `CC(=O)N1CCN(Cc2ccc(-c3cccc(-n4c(=O)n([C@H]5CC[C@@H](NC(=O)c6cn7c(n6)CCCC7)CC5)c(=O)c5cc(F)cnc54)c3)cc2)CC1` [Example 218, N-{cis-4-[1-{4′-[(4-acetylpiperazin-1-yl)methyl]biphenyl-3-yl}-6-fluoro-2,4-dioxo-1,4-dihydropyrido[2,3-d]pyrimidin-3(2H)-yl]cyclohexyl}-5,6,7,8-tetrahydroimidazo[1,2-a]pyridine-2-carboxamide] it was 6.31 pM; in that of `CC(C)N1CCN(Cc2ccc(-c3cccc(-n4c(=O)n([C@H]5CC[C@@H](NC(=O)c6cn7c(n6)CCCC7)CC5)c(=O)c5cc(F)cnc54)c3)cc2)CC1` [Example 134, N-{cis-4-[6-fluoro-1-{4′-[(4-isopropylpiperazin-1-yl)methyl]biphenyl-3-yl}-2,4-dioxo-1,4-dihydropyrido[2,3-d]pyrimidin-3(2H)-yl]cyclohexyl}-5,6,7,8-tetrahydroimidazo[1,2-a]pyridine-2-carboxamide], 7.94 pM.
`COCCNCc1ccc(-c2cccc(-n3c(=O)n([C@H]4CC[C@@H](NC(=O)c5cc(C)n(C)n5)CC4)c(=O)c4cc(F)cnc43)c2)cc1` [Example 117, N-{cis-4-[6-fluoro-1-(4′-{[(2-methoxyethyl)amino]methyl}biphen-yl-3-yl)-2,4-dioxo-1,4-dihydropyrido[2,3-d]pyrimidin-3(2H)-yl]cyclohexyl}-1,5-dimethyl-1H-pyrazole-3-carboxamide]: the IC50 was 126 pM.
In the case of `C[C@H](CO)NCc1ccc(-c2cccc(-n3c(=O)n([C@H]4CC[C@@H](NC(=O)c5cn6cc(F)ccc6n5)CC4)c(=O)c4cc(F)cnc43)c2)cc1` [Example 59] it was 158 pM; in that of `O=C(O)c1ccc(-c2cccc(-n3c(=O)n([C@H]4CC[C@@H](NC(=O)c5cn6cc(F)ccc6n5)CC4)c(=O)c4cc(F)cnc43)c2)cc1` [Example 27, 3′-[6-fiuoro-3-(cis-4-{[(6-fluoroimidazo[1,2-a]pyridin-2-yl)carbonyl]amino}cyclohexyl)-2,4-dioxo-3,4-dihydropyrido[2,3-d]pyrimidin-1(2H)-yl]biphenyl-4-carboxylic acid], 251 pM.
To `O=c1c2cc(F)cnc2n(-c2cccc(-c3ccc(O)cc3CN3CCOCC3)c2)c(=O)n1[C@H]1CC[C@@H](NCc2ncc3ccccn23)CC1` [Example 374, 6-fluoro-1-[4′-hydroxy-2′-(morpholin-4-ylmethyl)biphenyl-3-yl]-3-{cis-4-[(imidazo[1,5-a]pyridin-3-ylmethyl)amino]cyclohexyl}pyrido[2,3-d] pyrimidine-2,4(1H,3H)-dione] belongs 63.1 pM; to `O=C(N[C@H]1CC[C@@H](n2c(=O)c3cc(F)cnc3n(-c3cccc(-c4ccc(F)cc4OCCN4CCNCC4)c3)c2=O)CC1)c1cn2cc(F)ccc2n1` [Example 85, 6-fluoro-N-{cis-4-[6-fluoro-1-[4′-fluoro-2′-(2-piperazin-1-ylethoxy)biphenyl-3-yl]-2,4-dioxo-1,4-dihydropyrido[2,3-d]pyrimidin-3(2H)-yl]cyclohexyl}imidazo[1,2-a]pyridine-2-carboxamide], 316 pM.
